Solubility data for two molecules are collected here from US12319687B2, “Indole alkaloid compound in noni enzyme and preparation method and application thereof” (HAINAN NORMAL UNIVERSITY, priority 2020, dated 2025).

The nature of the series: Physical and chemical properties: solubility. Type of series: physicochemical. To be noted: in water, methanol, DMSO. On the procedure:
The physical and chemical properties, hydrogen spectrum and mass spectrometry detection data of each compound are as follows:
It is calculated by a HR-ESI-MS [m/z 225.1406, calculated value being 225.1465] that a molecular weight of the compound is 202, a molecular formula is C12H14N2O, and a degree of unsaturation is 7.
It is calculated by the HR-ESI-MS [m/z 225.1406, calculated value being 225.1465] that a molecular weight of the compound is 202, a molecular formula is C12H14N2O, and a degree of unsaturation is 7.

For the molecule `C[C@H]1N[C@H](O)Cc2c1[nH]c1ccccc21` [Compound 1, Noni alkaloid C], the solubility entry was “easily soluble in water, methanol, DMSO”.
The same measure for `C[C@H]1N[C@@H](O)Cc2c1[nH]c1ccccc21` [Compound 2, Noni alkaloid D]: “easily soluble in water, methanol, DMSO”.
